Test results taken from patent US20060089395A1, “Nf-kb activation inhibitors” (priority 2002, published 2006).
Like-named read-outs stand apart in the source and are kept apart here.

System: NF-κ B
Assay: Inhibitory activity of NF-κ B activation, luciferase reporter assay in HepG2 under TNF-α stimulation
Assay type: cell-based, human
Method: Using a transfection reagent(Effectene; QIAGEN), the human hepatoma cell strain HepG2 was transfected with a plasmid(pNF κ B-Luc Reporter Plasmid; […]) which is integrated with an oligonucleotide having five tandem copies of NF-κ B binding sequences([…]) on a upstream region of firefly luciferase gene(Luc) according to the QIAGEN's protocol, and the cells were incubated for 6 to 24 hours. After the addition of TNF-α (40 ng/ml) in the presence or absence of a test compound, the cells were incubated for 4 hours, and intracellular luciferase activity was measured by using PicaGene LT (TOYO INK MFG Co., Ltd.) and a chemical luminescence measurement apparatus ([…]luor Plus; TECAN). The inhibitory ratio was measured as a ratio relative to the value of a luciferase activity in the absence of the test compound.

[1] = Homo sapiens, 1 μg/mL, HepG2, TNF-α (40 ng/ml), 4 hours, read-out: Inhibitory Ratio of NF-κ B Activation(%) Drug Concentration 1 μg/mL
[2] = Homo sapiens, 10 μg/mL, HepG2, TNF-α (40 ng/ml), 4 hours, read-out: Inhibitory Ratio of NF-κ B Activation(%) Drug Concentration 10 μg/mL
[3] = 1 μg/mL, HepG2, TNF-α (40 ng/ml), 4 hours
[4] = 10 μg/mL, HepG2, TNF-α (40 ng/ml), 4 hours

SMILES	Inhibitory Ratio of NF-κ B Activation(%) Drug Concentration 1 μg/mL [3] [%]	Inhibitory Ratio of NF-κ B Activation(%) Drug Concentration 10 μg/mL [4] [%]	other results
O=C(Nc1cc(C(F)(F)F)ccc1C(F)(F)F)c1cc(Cl)ccc1O [Compound No.81, N-[2,5-bis(trifluoromethyl)phenyl]-5-chloro-2-hydroxybenzamide]			inhibition at 0.1 µg/mL (Homo sapiens, HepG2, 4 h, 0.1 μg/ml, comparison table, reporter assay, read-out: Inhibitory Ratio of NF-κB Activation (%) 0.1 μg/ml): 27%; inhibition at 1 µg/mL (Homo sapiens, HepG2, 4 h, 1 μg/ml, comparison table, reporter assay, read-out: Inhibitory Ratio of NF-κB Activation (%) 1 μg/ml): 95%; inhibition at 10 µg/mL (Homo sapiens, HepG2, 4 h, 10 μg/ml, comparison table, reporter assay, read-out: Inhibitory Ratio of NF-κB Activation (%) 10 μg/ml): 96.3%; inhibition at 1 µg/mL [1]: 95%; inhibition at 10 µg/mL [2]: 96.3%
CCOC(=O)c1c(NC(=O)c2cc(Cl)ccc2O)sc2c1CCCC2 [Compound No. 232]	88.2	85.4	
O=C(Nc1cc(F)cc(F)c1)c1cc(Cl)ccc1O [Compound No. 180]	90.7	93.7	
Cc1ccc(S(=O)(=O)c2ccc(Cl)cc2NC(=O)c2cc(Cl)ccc2O)cc1 [Compound No. 168]	46.7	97.8	
Cc1ccc(C(=O)C(C)(C)C)cc1NC(=O)c1cc(Cl)ccc1O [compound 166]	94.1	96.4	
CCOC(=O)c1sc(NC(=O)c2cc(Br)ccc2O)nc1C(F)(F)F [Compound No. 224]	87.6	96.5	
O=C(Nc1cccc(Br)n1)c1cc(Cl)ccc1O [Compound No. 243]	84.2	95.1	
O=C(Nc1nc(-c2c(F)c(F)c(F)c(F)c2F)cs1)c1cc(Cl)ccc1O [Compound No. 266, 5-Chloro-2-hydroxy-N-[4-(2,3,4,5,6-pentafluorophenyl)thiazol-2-yl]benzamide]			inhibition at 1 µg/mL [1]: > 99.9%
Cc1ccc(O)c(C(=O)Nc2cc(C(F)(F)F)ccc2C(F)(F)F)c1 [Compound No. 84]	92.6	96.6	
CC(=O)c1ccc(O)c(C(=O)Nc2cc(C(F)(F)F)cc(C(F)(F)F)c2)c1 [Compound No. 12, 5-acetyl-N-[3,5-bis(trifluoromethyl)phenyl]-2-hydroxybenzamide]			inhibition at 1 µg/mL [1]: 86.3%; inhibition at 10 µg/mL [2]: 99.2%
Cc1ccc(C(C)C)cc1NC(=O)c1cc(Cl)ccc1O [Compound No. 151]	85.8	98.2	
CCOC(=O)c1sc(NC(=O)c2cc(-c3ccc(F)cc3F)ccc2O)nc1-c1ccccc1 [Compound No. 227]	31.8	90.3	
O=C(Nc1cc(Cl)cc(Cl)c1)c1cc(I)ccc1O [Compound No. 127]	85.4	97.1	
O=C(Nc1cc(C(F)(F)F)cc(C(F)(F)F)c1)c1cccc(-c2ccccc2)c1O [Compound No. 249, N-[3,5-bis(trifluoromethyl)phenyl]-2-hydroxy-3-phenylbenzamide]			inhibition at 1 µg/mL [1]: 86.6%; inhibition at 10 µg/mL [2]: 90.7%
CCc1sc(NC(=O)c2cc(Br)ccc2O)nc1C(C)(C)C [Compound No. 195, 5-Bromo-N-{4-[(1,1-dimethyl)ethyl]-5-ethylthiazol-2-yl}-2-hydroxybenzamide]			inhibition at 1 µg/mL [1]: 90.5%; inhibition at 10 µg/mL [2]: 98.1%
COc1ccc(C)c(NC(=O)c2cc(Cl)ccc2O)c1 [Compound No. 160]	69.6	96.5	
COc1ccc(-n2cccc2)c(NC(=O)c2cc(Cl)ccc2O)c1 [Compound No. 167]	76.4	98.7	
CCOC(=O)c1sc(NC(=O)c2cc(-c3ccc(F)cc3)ccc2O)nc1-c1ccccc1 [Compound No. 226]	45.0	85.8	
O=C(Nc1cc(F)cc(C(F)(F)F)c1)c1cc(Cl)ccc1O [Compound No. 85]	94.7	98.9	
CC(C)(C)c1nc(NC(=O)c2cc(Br)ccc2O)sc1Br [Compound No. 186, 5-Bromo-N-{5-bromo-4-[(1,1-dimethyl)ethyl]thiazol-2-yl}-2-hydroxybenzamide]			inhibition at 1 µg/mL [1]: 96.5%; inhibition at 10 µg/mL [2]: 98.7%
O=C(Nc1cc(-c2ccccc2)[nH]n1)c1cc(Br)ccc1O [Compound No. 233]	26.6	84.7	
